Source: patent publication US6630501B1, “Phosphinic pseudo-peptides that may be used as matrix zinc metalloprotease inhibitors” (Commissariat a l'energie Atomique, priority 1999, dated 2003)

Tests used:
[1] = target: T1, MMP-1 (HFC) (Homo sapiens, UniProt P03956); test: Ki determination with fluorogenic synthetic substrates, recombinant MMP-1; assay type: biochemical; conditions: for inhibition at 2000 µM / percentage of inhibition, MMP-1: @ 2 mM inhibitor
T1 construct: made in house; host or cells: E. coli
T1 sequence (P03956 100-469): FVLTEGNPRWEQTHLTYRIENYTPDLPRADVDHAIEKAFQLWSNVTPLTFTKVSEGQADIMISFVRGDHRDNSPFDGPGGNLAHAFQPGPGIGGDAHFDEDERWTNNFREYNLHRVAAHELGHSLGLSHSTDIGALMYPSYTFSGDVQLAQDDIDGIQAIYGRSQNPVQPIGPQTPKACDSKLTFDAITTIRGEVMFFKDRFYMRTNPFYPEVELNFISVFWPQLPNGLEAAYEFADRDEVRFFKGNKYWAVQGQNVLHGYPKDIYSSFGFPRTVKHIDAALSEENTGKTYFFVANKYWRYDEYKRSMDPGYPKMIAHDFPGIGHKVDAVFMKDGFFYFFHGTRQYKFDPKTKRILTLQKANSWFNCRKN
Protocol: (§1) The MMPs used were produced in recombinant form, in an E. coli expression system, and then purified using different types of chromatographies. Apart from stromelysin-3 (MMP-11), the MMPs produces correspond to human sequences. The Stromelysin-3 used in this study corresponds to the murine form.
(§2) The activity of each MMP was determined using two fluorogenic synthetic substrates. The cutoff of said substrates, which generates a fluorescent signal proportional to the quantity of split substrate, enables a precise determination of the kinetic parameters. The affinity constants Ki were calculated using the equation of Horowitz et al, Proc. Natl. Acad. Sci. USA, 1987, 84, p. 6654-6658 [14], accounting for the dependency of the percentage of inhibition measured experimentally according to the concentration of inhibitor, as a function of the enzyme and substrate concentration.
(§3) The experiments for conducted in a Tris/50 mM HCl buffer, pH 6.8, 10 mM CaCl2, 25° C.

[2] = target: T2, MMP-8 (HNC) (Homo sapiens, UniProt P22894); test: Ki determination with fluorogenic synthetic substrates, recombinant MMP-8; assay type: biochemical; conditions: for Ki: Tris/50 mM HCl buffer, pH 6.8, 10 mM CaCl2, 25° C., read-out: affinity constant Ki, MMP-8 HNC
T2 construct: made in house; host or cells: E. coli
T2 sequence (P22894 101-467): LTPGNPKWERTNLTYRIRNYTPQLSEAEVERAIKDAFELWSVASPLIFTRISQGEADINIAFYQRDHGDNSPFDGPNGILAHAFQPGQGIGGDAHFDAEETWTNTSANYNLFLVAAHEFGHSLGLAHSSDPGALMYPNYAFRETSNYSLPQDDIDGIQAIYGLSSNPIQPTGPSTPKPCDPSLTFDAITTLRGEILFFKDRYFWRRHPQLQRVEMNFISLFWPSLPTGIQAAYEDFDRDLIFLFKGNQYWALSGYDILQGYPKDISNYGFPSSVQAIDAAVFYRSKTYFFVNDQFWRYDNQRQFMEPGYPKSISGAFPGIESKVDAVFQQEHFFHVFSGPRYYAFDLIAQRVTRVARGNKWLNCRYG
Protocol: as §1, §2, §3

[3] = target: T3, MMP-9 (Gel-B) (Homo sapiens, UniProt P14780); test: Ki determination with fluorogenic synthetic substrates, recombinant MMP-9; assay type: biochemical; conditions: for Ki: Tris/50 mM HCl buffer, pH 6.8, 10 mM CaCl2, 25° C., read-out: affinity constant Ki, MMP-9 Gel-B; for inhibition at 2000 µM: @ 2 mM inhibitor, read-out: percentage of inhibition, MMP-9
T3 construct: made in house; host or cells: E. coli
T3 sequence (P14780 94-707): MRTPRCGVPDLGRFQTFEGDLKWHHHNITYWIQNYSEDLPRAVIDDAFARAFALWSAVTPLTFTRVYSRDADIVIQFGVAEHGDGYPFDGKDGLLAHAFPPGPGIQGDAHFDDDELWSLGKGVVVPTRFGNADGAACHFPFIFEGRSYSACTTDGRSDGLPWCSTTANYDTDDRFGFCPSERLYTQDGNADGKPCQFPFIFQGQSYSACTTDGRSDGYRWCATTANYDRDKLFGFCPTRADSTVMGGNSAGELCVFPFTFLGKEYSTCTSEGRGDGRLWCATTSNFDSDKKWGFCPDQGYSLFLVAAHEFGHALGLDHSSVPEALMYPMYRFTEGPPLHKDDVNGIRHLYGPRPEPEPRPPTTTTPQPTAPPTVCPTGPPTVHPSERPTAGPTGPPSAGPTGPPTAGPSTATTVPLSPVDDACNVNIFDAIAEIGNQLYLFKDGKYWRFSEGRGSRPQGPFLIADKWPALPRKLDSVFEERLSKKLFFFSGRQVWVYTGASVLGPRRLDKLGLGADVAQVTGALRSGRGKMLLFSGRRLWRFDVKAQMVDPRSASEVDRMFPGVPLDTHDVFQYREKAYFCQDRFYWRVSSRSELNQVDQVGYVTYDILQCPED
Protocol: as §1, §2, §3

[4] = target: T4, MMP-14 (MT1-MMP) (Homo sapiens, UniProt P50281); test: Ki determination with fluorogenic synthetic substrates, recombinant MMP-14; assay type: biochemical; conditions: for Ki: Tris/50 mM HCl buffer, pH 6.8, 10 mM CaCl2, 25° C., read-out: affinity constant Ki, MMP-14 MT1-MMP
T4 construct: made in house; host or cells: E. coli
Protocol: as §1, §2, §3

[5] = target: T5, MMP-2 (Gel-A) (Homo sapiens, UniProt P08253); test: Ki determination with fluorogenic synthetic substrates, recombinant MMP-2; assay type: biochemical; conditions: for Ki: Tris/50 mM HCl buffer, pH 6.8, 10 mM CaCl2, 25° C., read-out: affinity constant Ki, MMP-2 Gel-A; for inhibition at 2000 µM: @ 2 mM inhibitor, read-out: percentage of inhibition, MMP-2
T5 construct: made in house; host or cells: E. coli
T5 sequence (P08253 110-660): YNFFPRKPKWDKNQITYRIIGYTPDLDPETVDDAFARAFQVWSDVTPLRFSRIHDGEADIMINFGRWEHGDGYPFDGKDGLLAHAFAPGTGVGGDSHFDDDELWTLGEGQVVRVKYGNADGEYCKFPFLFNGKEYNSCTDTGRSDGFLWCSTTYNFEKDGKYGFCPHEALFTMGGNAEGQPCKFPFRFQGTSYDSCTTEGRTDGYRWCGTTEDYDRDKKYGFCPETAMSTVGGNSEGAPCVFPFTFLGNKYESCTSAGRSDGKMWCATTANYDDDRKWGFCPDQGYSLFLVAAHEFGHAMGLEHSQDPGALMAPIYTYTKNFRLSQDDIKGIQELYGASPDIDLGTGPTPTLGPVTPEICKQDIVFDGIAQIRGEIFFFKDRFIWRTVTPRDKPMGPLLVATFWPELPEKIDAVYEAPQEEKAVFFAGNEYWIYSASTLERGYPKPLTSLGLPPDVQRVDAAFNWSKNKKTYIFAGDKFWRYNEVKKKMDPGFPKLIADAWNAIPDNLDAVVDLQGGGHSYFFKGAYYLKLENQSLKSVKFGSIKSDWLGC
Protocol: as §1, §2, §3

[6] = target: T6, MMP-11 (stromelysin-3, mST3) (Mus musculus, UniProt Q02853); test: Ki determination with fluorogenic synthetic substrates, recombinant MMP-11; assay type: biochemical, murine; conditions: for Ki: Tris/50 mM HCl buffer, pH 6.8, 10 mM CaCl2, 25° C., read-out: affinity constant Ki, MMP-11 mST3
T6 construct: made in house; host or cells: E. coli
T6 sequence (Q02853 102-492): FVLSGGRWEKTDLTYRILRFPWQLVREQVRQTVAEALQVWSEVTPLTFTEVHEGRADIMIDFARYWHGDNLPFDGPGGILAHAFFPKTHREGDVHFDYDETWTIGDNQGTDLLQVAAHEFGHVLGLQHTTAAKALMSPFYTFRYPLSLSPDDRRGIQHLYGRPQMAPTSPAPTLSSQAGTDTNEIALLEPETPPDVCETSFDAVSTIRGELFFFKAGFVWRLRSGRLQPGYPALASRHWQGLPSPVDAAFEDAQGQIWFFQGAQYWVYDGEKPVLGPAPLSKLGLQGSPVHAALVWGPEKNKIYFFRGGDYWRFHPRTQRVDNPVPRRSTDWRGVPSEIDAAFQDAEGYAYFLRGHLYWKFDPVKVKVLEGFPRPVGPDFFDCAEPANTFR
Protocol: as §1, §2, §3

[7] = target: T7, MMP-7 (Matrilysin) (Homo sapiens, UniProt P09237); test: Ki determination with fluorogenic synthetic substrates, recombinant MMP-7; assay type: biochemical; conditions: for percentage of inhibition, MMP-7: @ 20 mM inhibitor
T7 construct: made in house; host or cells: E. coli
T7 sequence (P09237 95-267): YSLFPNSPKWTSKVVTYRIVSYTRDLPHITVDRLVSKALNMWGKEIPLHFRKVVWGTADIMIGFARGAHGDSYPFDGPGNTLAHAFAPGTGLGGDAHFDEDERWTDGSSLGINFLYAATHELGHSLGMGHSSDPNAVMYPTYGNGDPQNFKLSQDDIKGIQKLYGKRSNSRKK
Protocol: as §1, §2, §3

[8] = read-out: percentage of inhibition, MMP-1

SMILES | inhibition at 2000 µM [1, 8] [%] | Ki [2] [nM] | Ki [3] [nM] | Ki [4] [nM] | Ki [5] [nM] | Ki [6] [nM] | also measured
NC(=O)[C@H](Cc1c[nH]c2ccccc12)NC(=O)C(CCCc1ccccc1)CP(=O)(O)C(Cc1ccccc1)NC(=O)OCc1ccccc1 (mixture of isomers) [Compound 15, ZPheΨ(PO2CpH2)pPheTrpNH2] | 23 | 2.5 | 10 | 105 | 20 | 5 | –
NC(=O)C(Cc1c[nH]c2ccccc12)NC(=O)C(CCCc1ccccc1)CP(=O)(O)C(Cc1ccccc1)NC(=O)OCc1ccccc1 (single isomer, unassigned) [Compound 15 R II] | – | 65 | 78 | 385 | 42 | 9 | percentage of inhibition, MMP-7 ([7]; listed as R II): 34% @ 20 mM; percentage of inhibition, MMP-1 ([1]; listed as R II): 16% @ 2 mM
NC(=O)C(Cc1c[nH]c2ccccc12)NC(=O)C(CCCc1ccccc1)CP(=O)(O)C(Cc1ccccc1)NC(=O)OCc1ccccc1 (single isomer, unassigned) [Compound 15 S II] | – | 460 | 250 | 2290 | 365 | 50 | percentage of inhibition, MMP-7 ([7]; listed as S II): 29% @ 20 mM; percentage of inhibition, MMP-1 ([1]; listed as S II): 6% @ 2 mM
CC(NC(=O)OCc1ccccc1)P(=O)(O)CC(Cc1ccccc1)C(=O)NC(Cc1c[nH]c2ccccc12)C(N)=O (stereo not drawn) [Compound 7] | 24 | 240 | 280 | 2030 | 250 | 350 | –
CC(NC(=O)OCc1ccccc1)P(=O)(O)CC(CCc1ccccc1)C(=O)NC(Cc1c[nH]c2ccccc12)C(N)=O (stereo not drawn) [Compound 8] | 23 | 20 | 60 | 270 | 80 | 51 | –
CC(NC(=O)OCc1ccccc1)P(=O)(O)CC(CCCc1ccccc1)C(=O)NC(Cc1c[nH]c2ccccc12)C(N)=O (stereo not drawn) [Compound 9] | 30 | 8 | 23 | 92 | 31 | 100 | factor by which activity on MMP-8 is multiplied when R3 changes from benzyl to phenylpropyl ([2]; compound 9 in relation to compound 7): 30
CC(NC(=O)OCc1ccccc1)P(=O)(O)CC(COCc1ccccc1)C(=O)NC(Cc1c[nH]c2ccccc12)C(N)=O (stereo not drawn) [Compound 10] | 15 | 19 | 44 | 550 | 250 | 175 | –
CC(NC(=O)OCc1ccccc1)P(=O)(O)CC(CSCc1ccccc1)C(=O)NC(Cc1c[nH]c2ccccc12)C(N)=O (stereo not drawn) [Compound 11] | 45 | – | 6 | 26 | 14 | 36 | –
CC(CP(=O)(O)C(Cc1ccccc1)NC(=O)OCc1ccccc1)C(=O)NC(Cc1c[nH]c2ccccc12)C(N)=O (stereo not drawn) [Compound 12] | 20 | – | – | – | – | 2670 | inhibition at 1000 µM ([2]; @ 1 mM inhibitor, read-out: percentage of inhibition, MMP-8): 9%; inhibition at 2000 µM [3]: 0%; inhibition at 10000 µM ([4]; @ 10 mM inhibitor, read-out: percentage of inhibition, MMP-14): 0%; inhibition at 2000 µM [5]: 0%
NC(=O)C(Cc1c[nH]c2ccccc12)NC(=O)C(CCc1ccccc1)CP(=O)(O)C(Cc1ccccc1)NC(=O)OCc1ccccc1 (stereo not drawn) [Compound 14] | 10 | 45 | 110 | 660 | 275 | 8.8 | inhibitory power on MMP-11, in words [6]: very powerful
NC(=O)C(Cc1c[nH]c2ccccc12)NC(=O)C(COCc1ccccc1)CP(=O)(O)C(Cc1ccccc1)NC(=O)OCc1ccccc1 (stereo not drawn) [Compound 17] | 9 | 20 | 55 | 545 | 85 | 16 | –
CC(NC(=O)C(CCCc1ccccc1)CP(=O)(O)C(Cc1ccccc1)NC(=O)OCc1ccccc1)C(N)=O (stereo not drawn) [Compound 22] | 9 | 240 | – | 2960 | – | – | inhibition at 2000 µM [3]: 45%; inhibition at 2000 µM [5]: 31%; inhibition at 1000 µM ([6]; @ 1 mM inhibitor, read-out: percentage of inhibition, MMP-11): 20%
NC(=O)C(Cc1c[nH]c2ccccc12)NC(=O)C(CCCc1ccccc1)CP(=O)(O)C(Cc1ccccc1)NC(=O)c1cc2ccccc2[nH]1 (stereo not drawn) [Compound 30] | – | – | 8 | 41 | 10 | 1.5 | Ki ([7]; Tris/50 mM HCl buffer, pH 6.8, 10 mM CaCl2, 25° C., read-out: affinity constant Ki, MMP-7 Matrilysin): 605 nM; inhibition at 1 µM ([1]; @ 1 μM inhibitor, read-out: percentage of inhibition, MMP-1): 87%
